In the supplement of paper PMC4862054:

Experiments:
Settings in all cases: incubation time: 72 h
HCC1143 = experiment: normalised viability (% of control), CellTiter-Blue; higher = more viable cells (about 100 = DMSO control)
Experimental: (§1)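 DSRT, CellTiter-Blue viability, 72 h incubation. Signal is normalised to DMSO and benzethonium chloride controls. Value is the normalised response at dose 3.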

HCC1937 [1] = experiment: as above
Experimental: as §1

MDA-MB-468 [2] = experiment: as above
Experimental: as §1

SK-BR-3 = experiment: as above
Experimental: as §1

MDA-MB-231 = experiment: as above
Experimental: as §1

BT-549 [3] = experiment: as above
Experimental: as §1

BT-474 = experiment: as above
Experimental: as §1

MDA-MB-436 = experiment: as above
Experimental: as §1

CAL-148 [4] = experiment: as above
Experimental: as §1

Hs578T [5] = experiment: as above
Experimental: as §1

HCC1599 = experiment: as above
Experimental: as §1

MDA-MB-453 [6] = experiment: as above
Experimental: as §1

DU-4475 [7] = experiment: as above
Experimental: as §1

CAL-51 [8] = experiment: as above
Experimental: as §1

HDQ-P1 = experiment: as above
Experimental: as §1

CAL-120 [9] = experiment: as above
Experimental: as §1

MFM-223 = experiment: as above
Experimental: as §1

CAL-85-1 = experiment: as above
Experimental: as §1

HCC1937 [10] = experiment: drug sensitivity score (DSS), CellTiter-Blue viability (DSS (AUC-based score)); higher = stronger viability inhibition; extreme values may be limits of the assay
Experimental: (§2)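 DSRT with the CellTiter-Blue (resazurin reduction) viability readout, fluorescence 560/590 nm, 72 h incubation. Plates were normalised to DMSO and benzethonium chloride controls. DSS is computed from the area under the fitted dose-response curve (5 or 9 concentrations).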

MDA-MB-468 [11] = experiment: as above
Experimental: as §2

BT-549 [12] = experiment: as above
Experimental: as §2

CAL-148 [13] = experiment: as above
Experimental: as §2

Hs578T [14] = experiment: as above
Experimental: as §2

MDA-MB-453 [15] = experiment: as above
Experimental: as §2

DU-4475 [16] = experiment: as above
Experimental: as §2

CAL-51 [17] = experiment: as above
Experimental: as §2

CAL-120 [18] = experiment: as above
Experimental: as §2

Row | Compound | normalised viability (HCC1143; 10 nM) [%] | normalised viability (HCC1937 [1]; 10 nM) [%] | normalised viability (MDA-MB-468 [2]; 10 nM) [%] | normalised viability (SK-BR-3; 10 nM) [%] | normalised viability (MDA-MB-231; 10 nM) [%] | normalised viability (BT-549 [3]; 10 nM) [%] | normalised viability (BT-474; 10 nM) [%] | normalised viability (MDA-MB-436; 10 nM) [%] | normalised viability (CAL-148 [4]; 1 nM) [%] | normalised viability (Hs578T [5]; 10 nM) [%] | normalised viability (HCC1599; 10 nM) [%] | drug sensitivity score (HCC1937 [10]) | drug sensitivity score (MDA-MB-468 [11]) | drug sensitivity score (BT-549 [12]) | drug sensitivity score (CAL-148 [13]) | drug sensitivity score (Hs578T [14]) | drug sensitivity score (MDA-MB-453 [15]) | drug sensitivity score (DU-4475 [16]) | drug sensitivity score (CAL-51 [17]) | drug sensitivity score (CAL-120 [18]) | further results
1 | O=C(O)CC[C@H]1CC[C@@](c2cc(F)ccc2F)(S(=O)(=O)c2ccc(Cl)cc2)CC1 [MK-0752] | 98 | 88.5 | 97.6 | 93.3 | 98 | 104 | 114 | 103 | 107 | 88.6 | 106 | 0 | 0 | 0 | 0 | 0 | 0 | 0 | 0 | 0 | normalised viability (MDA-MB-453 [6]; 1 nM): 111%; normalised viability (DU-4475 [7]; 1 nM): 105%; normalised viability (CAL-51 [8]; 1 nM): 96.3%; normalised viability (HDQ-P1; 1 nM): 96.2%; normalised viability (CAL-120 [9]; 10 nM): 95.1%; normalised viability (MFM-223; 10 nM): 97.1%; normalised viability (CAL-85-1; 1 nM): 96%
2 | N[C@@H](Cc1ccc(N(CCCl)CCCl)cc1)C(=O)O [Melphalan] | – | – | – | – | – | – | – | – | – | – | – | 9.6 | 0 | 0 | 0 | 3.68 | 0 | 0 | 0 | 0 | normalised viability (HCC1143; 9.9 nM): 74.2%; normalised viability (HCC1937 [1]; 9.9 nM): 102%; normalised viability (MDA-MB-468 [2]; 9.9 nM): 108%; normalised viability (SK-BR-3; 9.9 nM): 86.9%; normalised viability (MDA-MB-231; 9.9 nM): 99.8%; normalised viability (BT-549 [3]; 9.9 nM): 110%; normalised viability (BT-474; 9.9 nM): 99.3%; normalised viability (MDA-MB-436; 9.9 nM): 87.2%; normalised viability (CAL-148 [4]; 0.99 nM): 92.4%; normalised viability (Hs578T [5]; 9.9 nM): 75.8%; normalised viability (HCC1599; 9.9 nM): 96.1%; normalised viability (MDA-MB-453 [6]; 0.99 nM): 108%; normalised viability (DU-4475 [7]; 0.99 nM): 105%; normalised viability (CAL-51 [8]; 0.99 nM): 104%; normalised viability (HDQ-P1; 0.99 nM): 97.6%; normalised viability (CAL-120 [9]; 9.9 nM): 73.6%; normalised viability (MFM-223; 9.9 nM): 89.9%; normalised viability (CAL-85-1; 0.99 nM): 87.5%
3 | CO[C@H]1C[C@@H]2CC[C@@H](C)[C@@](O)(O2)C(=O)C(=O)N2CCCC[C@H]2C(=O)O[C@H]([C@H](C)C[C@@H]2CC[C@@H](O)[C@H](OC)C2)CC(=O)[C@H](C)/C=C(\C)[C@@H](O)[C@@H](OC)C(=O)[C@H](C)C[C@H](C)/C=C/C=C/C=C/1C [Sirolimus] | 67.9 | 61.5 | 65.4 | 59.1 | 67.7 | 53 | 65.9 | 82.5 | 74.8 | 58.2 | 73.8 | 20.4 | 14.2 | 20.8 | 19.8 | 14.4 | 27.8 | 15 | 23.8 | 17.3 | normalised viability (MDA-MB-453 [6]; 1 nM): 54.3%; normalised viability (DU-4475 [7]; 1 nM): 85.1%; normalised viability (CAL-51 [8]; 1 nM): 62.6%; normalised viability (HDQ-P1; 1 nM): 76.7%; normalised viability (CAL-120 [9]; 10 nM): 54.5%; normalised viability (MFM-223; 10 nM): 49%; normalised viability (CAL-85-1; 1 nM): 68.9%
4 | CC[C@@H]1C(=O)N(C)c2cnc(Nc3ccc(C(=O)N[C@H]4CC[C@H](N5CCN(CC6CC6)CC5)CC4)cc3OC)nc2N1C(C)C [Volasertib] | 77.4 | 70.6 | 83.8 | 53.6 | 92.8 | 94.5 | 55.8 | 88.6 | 98.3 | 97.3 | 78.5 | 16.3 | 11.9 | 12.3 | 17.8 | 11.3 | 19.2 | 14.7 | 17.6 | 20.5 | normalised viability (MDA-MB-453 [6]; 1 nM): 104%; normalised viability (DU-4475 [7]; 1 nM): 124%; normalised viability (CAL-51 [8]; 1 nM): 102%; normalised viability (HDQ-P1; 1 nM): 103%; normalised viability (CAL-120 [9]; 10 nM): 48.5%; normalised viability (MFM-223; 10 nM): 51.1%; normalised viability (CAL-85-1; 1 nM): 95.3%
5 | Cc1c(C(=O)Nc2ccc(N3C[C@@H](C)O[C@@H](C)C3)nc2)cccc1-c1ccc(OC(F)(F)F)cc1 [NVP-LDE225] | – | – | – | – | – | – | – | – | – | – | – | 0 | 0 | 0 | 0 | 0 | 0 | 0 | 0 | 0 | normalised viability (HCC1143; 100 nM): 92.5%; normalised viability (HCC1937 [1]; 100 nM): 97.2%; normalised viability (MDA-MB-468 [2]; 100 nM): 113%; normalised viability (SK-BR-3; 100 nM): 71.1%; normalised viability (MDA-MB-231; 100 nM): 99%; normalised viability (BT-549 [3]; 100 nM): 97%; normalised viability (BT-474; 100 nM): 93.3%; normalised viability (MDA-MB-436; 100 nM): 73.2%; normalised viability (CAL-148 [4]; 10 nM): 108%; normalised viability (Hs578T [5]; 100 nM): 72.5%; normalised viability (HCC1599; 100 nM): 102%; normalised viability (MDA-MB-453 [6]; 10 nM): 110%; normalised viability (DU-4475 [7]; 10 nM): 103%; normalised viability (CAL-51 [8]; 10 nM): 99.7%; normalised viability (HDQ-P1; 10 nM): 83.5%; normalised viability (CAL-120 [9]; 100 nM): 99.7%; normalised viability (MFM-223; 100 nM): 108%; normalised viability (CAL-85-1; 10 nM): 102%
6 | Cc1c(N)nc([C@H](CC(N)=O)NC[C@H](N)C(N)=O)nc1C(=O)N[C@H](C(=O)N[C@H](C)[C@@H](O)[C@H](C)C(=O)N[C@H](C(=O)NCCc1nc(-c2nc(C(=O)NCCC[S+](C)C)cs2)cs1)[C@@H](C)O)[C@@H](OC1OC(CO)C(O)C(O)C1OC1OC(CO)C(O)C(OC(N)=O)C1O)c1cnc[nH]1 (some centres not stated) [Bleomycin] | – | – | – | – | – | – | – | – | – | – | – | 9.75 | 0 | 13.6 | 0 | 11.3 | 0 | 0 | 0.892 | 3.15 | normalised viability (HCC1143; 100 nM): 74.7%; normalised viability (HCC1937 [1]; 100 nM): 91.4%; normalised viability (MDA-MB-468 [2]; 100 nM): 86.5%; normalised viability (SK-BR-3; 100 nM): 90.8%; normalised viability (MDA-MB-231; 100 nM): 81.8%; normalised viability (BT-549 [3]; 100 nM): 61.4%; normalised viability (BT-474; 100 nM): 96%; normalised viability (MDA-MB-436; 100 nM): 88.2%; normalised viability (CAL-148 [4]; 10 nM): 77.6%; normalised viability (Hs578T [5]; 100 nM): 68.7%; normalised viability (HCC1599; 100 nM): 134%; normalised viability (MDA-MB-453 [6]; 10 nM): 102%; normalised viability (DU-4475 [7]; 10 nM): 120%; normalised viability (CAL-51 [8]; 10 nM): 98.2%; normalised viability (HDQ-P1; 10 nM): 82.3%; normalised viability (CAL-120 [9]; 100 nM): 86.3%; normalised viability (MFM-223; 100 nM): 99.5%; normalised viability (CAL-85-1; 10 nM): 107%
